According to PubChem BioAssay (NCI):
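1) Cells in 96-well plates. 2) Compound, 48 h, 5 concentrations. 3) Linear interpolation between surrounding doses. 4) Unreached endpoint = highest concentration. GI50: concentration for 50% inhibition of growth. TGI: total growth inhibition.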

What was measured:
Test in all cases: NCI tumour cell line growth inhibition, 48 h
[1] = tested on: HT29 colon
[2] = tested on: HOP-62 NSCLC
[3] = tested on: LOX IMVI melanoma
[4] = tested on: MOLT-4 leukemia
[5] = tested on: SK-OV-3 ovarian
[6] = tested on: A549 NSCLC
[7] = tested on: OVCAR-3 ovarian
[8] = tested on: HCC-2998 colon
[9] = tested on: DU-145 prostate
[10] = tested on: SK-MEL-5 melanoma
[11] = tested on: MDA-MB-435
[12] = tested on: TK-10 renal
[13] = tested on: HOP-92 NSCLC
[14] = tested on: MDA-MB-231 breast
[15] = tested on: KM12 colon
[16] = tested on: SNB-19 CNS
[17] = tested on: SN12C renal
[18] = tested on: SNB-75 CNS
[19] = tested on: SW-620 colon
[20] = tested on: HCT-15 colon
[21] = tested on: COLO 205 colon
[22] = tested on: MALME-3M melanoma
[23] = tested on: SK-MEL-2 melanoma
[24] = tested on: HCT-116 colon
[25] = tested on: K-562 leukemia
[26] = tested on: MCF7 breast
[27] = tested on: NCI/ADR-RES ovarian
[28] = tested on: RXF 393 renal
[29] = tested on: UO-31 renal
[30] = tested on: BT-549 breast
[31] = tested on: SR leukemia
[32] = tested on: SF-268 CNS
[33] = tested on: EKVX NSCLC
[34] = tested on: SF-539 CNS
[35] = tested on: OVCAR-8 ovarian
[36] = tested on: M14 melanoma
[37] = tested on: IGROV1 ovarian
[38] = tested on: UACC-62 melanoma
[39] = tested on: SK-MEL-28 melanoma
[40] = tested on: OVCAR-5 ovarian
[41] = tested on: HL-60(TB) leukemia
[42] = tested on: PC-3 prostate
[43] = tested on: RPMI-8226 leukemia
[44] = tested on: ACHN renal
[45] = tested on: HS 578T breast
[46] = tested on: T-47D breast
[47] = tested on: U251 CNS
[48] = tested on: SF-295 CNS
[49] = tested on: CCRF-CEM leukemia
[50] = tested on: NCI-H522 lung
[51] = tested on: A498 renal
[52] = tested on: NCI-H23 lung
[53] = tested on: OVCAR-4 ovarian
[54] = tested on: NCI-H226 lung
[55] = tested on: NCI-H460 lung
[56] = tested on: UACC-257 melanoma
[57] = tested on: 786-0 renal
[58] = tested on: CAKI-1 renal

Structure (SMILES): CCN(CC)CC(O)CNc1c2ccc(Cl)cc2nc2ccc(OC)cc12 (stereo unspecified)
- GI50 [1]: 0.356 µM
- TGI [1]: 1.48 µM
- GI50 [2]: 1.01 µM
- TGI [2]: 2.73 µM
- GI50 [3]: 0.589 µM
- TGI [3]: 1.79 µM
- GI50 [4]: 0.369 µM
- TGI [4]: 1.58 µM
- GI50 [5]: 1.02 µM
- TGI [5]: 3.64 µM
- GI50 [6]: 0.472 µM
- TGI [6]: 2.03 µM
- GI50 [7]: 1.71 µM
- TGI [7]: 4.26 µM
- GI50 [8]: 0.549 µM
- TGI [8]: 1.77 µM
- GI50 [9]: 0.71 µM
- TGI [9]: 2.21 µM
- GI50 [10]: 1.58 µM
- TGI [10]: 2.92 µM
- GI50 [11]: 0.923 µM
- TGI [11]: 2.25 µM
- GI50 [12]: 0.837 µM
- TGI [12]: 3.18 µM
- GI50 [13]: 1.3 µM
- TGI [13]: 3.84 µM
- GI50 [14]: 0.972 µM
- TGI [14]: 3.06 µM
- GI50 [15]: 0.512 µM
- TGI [15]: 1.86 µM
- GI50 [16]: 0.632 µM
- TGI [16]: 2.7 µM
- GI50 [17]: 0.54 µM
- TGI [17]: 2.68 µM
- GI50 [18]: 0.97 µM
- TGI [18]: 2.38 µM
- GI50 [19]: 0.393 µM
- TGI [19]: 1.65 µM
- GI50 [20]: 0.679 µM
- TGI [20]: 6.43 µM
- GI50 [21]: 0.528 µM
- TGI [21]: 1.68 µM
- GI50 [22]: 1.63 µM
- TGI [22]: 3.35 µM
- GI50 [23]: 1.27 µM
- TGI [23]: 2.85 µM
- GI50 [24]: 0.367 µM
- TGI [24]: 1.41 µM
- GI50 [25]: 0.312 µM
- TGI [25]: 0.979 µM
- GI50 [26]: 0.621 µM
- TGI [26]: 4.4 µM
- GI50 [27]: 0.933 µM
- TGI [27]: 3.31 µM
- GI50 [28]: 0.657 µM
- TGI [28]: 1.84 µM
- GI50 [29]: 0.929 µM
- TGI [29]: 3.41 µM
- GI50 [30]: 1.63 µM
- TGI [30]: 3.05 µM
- GI50 [31]: 0.338 µM
- TGI [31]: 1.07 µM
- GI50 [32]: 0.89 µM
- TGI [32]: 2.97 µM
- GI50 [33]: 0.407 µM
- TGI [33]: 2.08 µM
- GI50 [34]: 1.43 µM
- TGI [34]: 3.05 µM
- GI50 [35]: 0.521 µM
- TGI [35]: 2.25 µM
- GI50 [36]: 1.35 µM
- TGI [36]: 2.66 µM
- GI50 [37]: 0.716 µM
- TGI [37]: 3.12 µM
- GI50 [38]: 1.78 µM
- TGI [38]: 3.31 µM
- GI50 [39]: 1.72 µM
- TGI [39]: 3.1 µM
- GI50 [40]: 1.66 µM
- TGI [40]: 5.18 µM
- GI50 [41]: 0.96 µM
- TGI [41]: 3.32 µM
- GI50 [42]: 0.355 µM
- TGI [42]: 1.62 µM
- GI50 [43]: 0.51 µM
- TGI [43]: 1.87 µM
- GI50 [44]: 0.935 µM
- TGI [44]: 3.79 µM
- GI50 [45]: 1.24 µM
- TGI [45]: 3.47 µM
- GI50 [46]: 1.18 µM
- TGI [46]: 2.93 µM
- GI50 [47]: 0.574 µM
- TGI [47]: 2.32 µM
- GI50 [48]: 0.649 µM
- TGI [48]: 2.11 µM
- GI50 [49]: 0.673 µM
- TGI [49]: 6.88 µM
- GI50 [50]: 0.518 µM
- TGI [50]: 1.84 µM
- GI50 [51]: 1.43 µM
- TGI [51]: 2.89 µM
- GI50 [52]: 0.852 µM
- TGI [52]: 2.53 µM
- GI50 [53]: 0.704 µM
- TGI [53]: 2.25 µM
- GI50 [54]: 0.886 µM
- TGI [54]: 3.01 µM
- GI50 [55]: 0.327 µM
- TGI [55]: 0.975 µM
- GI50 [56]: 1.75 µM
- TGI [56]: 3.27 µM
- GI50 [57]: 0.549 µM
- TGI [57]: 2.05 µM
- GI50 [58]: 0.656 µM
- TGI [58]: 2.33 µM
